# From article PMC6409085, “Three odorant-binding proteins are involved in the behavioral response of Sogatella furcifera to rice plant volatiles” (PeerJ, 2019)
# Where “and” joins values, the source holds several entries; their conditions need not be identical. Equal entries are not always repeated.
# Experiments:
# SfurOBP1 = SfurOBP1 (Sogatella furcifera, UniProt V5T8N5); assay: biochemical; format: binding; conditions: for Fluorescence competitive binding assay, fluorescence intensity: OBP1, three replicate columns
# Method in brief: (§1)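 K1-NPN came from titrating 2.0 µM protein (50 mM Tris-HCl, pH 7.4) with 1-NPN. Odorants at 2-20 µM then competed against 2.0 µM protein plus 2.0 µM 1-NPN for 2 min, with excitation at 337 nm and emission recorded over 390-490 nm. IC50 values were converted to Ki via Ki = IC50/(1 + [1-NPN]/K1-NPN).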
# SfurOBP11 = SfurOBP11 (Sogatella furcifera, UniProt V5T6E3); assay: biochemical; format: binding
# Method in brief: as §1
# SfurOBP2 = SfurOBP2 (Sogatella furcifera, UniProt V5T759); assay: biochemical; format: binding
# Method in brief: as §1
# SfurOBP3 = SfurOBP3 (Sogatella furcifera, UniProt V5T818); assay: biochemical; format: binding; conditions: for Fluorescence competitive binding assay, fluorescence intensity: OBP3, three replicate columns
# Method in brief: as §1
# S. furcifera adults = assay: Y-tube olfactometer behavioral trials; format: in vivo, Sogatella furcifera; conditions: odorant 50 µL/L vs hexane; adults
# Method in brief: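 Single S. furcifera adults (2 days post-emergence, starved 0.5 h) chose between odorant (100 µL of 50 µL/L on filter paper) and hexane control in a glass Y-tube, charcoal-filtered humidified air 300 mL/min per arm, 25 ± 1 °C, 50% RH. Choice scored if insect passed half an arm and stayed >1 min within 10 min; 45 insects per compound, chi-squared test.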
# Chain of SfurOBP2 (V5T759 entry or part of it): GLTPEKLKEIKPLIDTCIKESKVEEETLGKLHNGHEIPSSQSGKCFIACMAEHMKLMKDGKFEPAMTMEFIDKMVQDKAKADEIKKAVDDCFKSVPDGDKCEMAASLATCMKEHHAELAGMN
# Chain of SfurOBP3 (V5T818 entry or part of it): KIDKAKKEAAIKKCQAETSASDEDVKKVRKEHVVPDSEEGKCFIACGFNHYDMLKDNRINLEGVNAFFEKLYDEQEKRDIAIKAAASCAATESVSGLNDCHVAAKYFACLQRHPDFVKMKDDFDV
# Chain of SfurOBP1 (V5T8N5 entry or part of it): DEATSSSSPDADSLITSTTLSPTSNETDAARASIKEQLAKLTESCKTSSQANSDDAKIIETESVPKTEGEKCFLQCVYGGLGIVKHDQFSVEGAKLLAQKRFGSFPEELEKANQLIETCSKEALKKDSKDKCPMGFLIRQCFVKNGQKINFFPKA
# Chain of SfurOBP11 (V5T6E3 entry or part of it): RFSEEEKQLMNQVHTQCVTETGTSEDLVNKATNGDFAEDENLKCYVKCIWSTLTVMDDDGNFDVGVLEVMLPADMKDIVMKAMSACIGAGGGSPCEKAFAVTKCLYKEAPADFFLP
structure (smiles),measurement,setting,value
CCCCCC=O [caproaldehyde],"Fluorescence competitive binding assay, fluorescence intensity",SfurOBP1; ligand concentration 2 (μM),7058 and 6495 and 6761
same,"Fluorescence competitive binding assay, fluorescence intensity",SfurOBP1; ligand concentration 4 (μM),6839 and 6210 and 6737
same,"Fluorescence competitive binding assay, fluorescence intensity",SfurOBP1; ligand concentration 6 (μM),6250 and 6285 and 6245
same,"Fluorescence competitive binding assay, fluorescence intensity",SfurOBP1; ligand concentration 8 (μM),7860 and 6318 and 6460
same,"Fluorescence competitive binding assay, fluorescence intensity",SfurOBP1; ligand concentration 10 (μM),7929 and 6952 and 5745
same,"Fluorescence competitive binding assay, fluorescence intensity",SfurOBP1; ligand concentration 12 (μM),6197 and 6258 and 6135
same,"Fluorescence competitive binding assay, fluorescence intensity",SfurOBP1; ligand concentration 14 (μM),6889 and 6127 and 7279
same,"Fluorescence competitive binding assay, fluorescence intensity",SfurOBP1; ligand concentration 16 (μM),6363 and 6530 and 5971
same,"Fluorescence competitive binding assay, fluorescence intensity",SfurOBP1; ligand concentration 18 (μM),6197 and 6677 and 5953
same,"Fluorescence competitive binding assay, fluorescence intensity",SfurOBP1; ligand concentration 20 (μM),6241 and 6216 and 6243
same,IC50,"SfurOBP1; SfurOBP1, protein and 1-NPN both 2.0 µM, competitor 2-20 µM, read-out: IC50",> 20 µM
same,IC50,"SfurOBP11; SfurOBP11, protein and 1-NPN both 2.0 µM, competitor 2-20 µM, read-out: IC50",> 20 µM
same,"Fluorescence intensity, fluorescence competitive binding assay, OBP11","SfurOBP11; ligand concentration 2, replicate 1",29622
same,"Fluorescence intensity, fluorescence competitive binding assay, OBP11","SfurOBP11; ligand concentration 2, replicate 2",27160
same,"Fluorescence intensity, fluorescence competitive binding assay, OBP11","SfurOBP11; ligand concentration 2, replicate 3",24651
same,"Fluorescence intensity, fluorescence competitive binding assay, OBP11","SfurOBP11; ligand concentration 4, replicate 1",27823
same,"Fluorescence intensity, fluorescence competitive binding assay, OBP11","SfurOBP11; ligand concentration 4, replicate 2",29657
same,"Fluorescence intensity, fluorescence competitive binding assay, OBP11","SfurOBP11; ligand concentration 4, replicate 3",29706
same,"Fluorescence intensity, fluorescence competitive binding assay, OBP11","SfurOBP11; ligand concentration 6, replicate 1",29000
same,"Fluorescence intensity, fluorescence competitive binding assay, OBP11","SfurOBP11; ligand concentration 6, replicate 2",25791
same,"Fluorescence intensity, fluorescence competitive binding assay, OBP11","SfurOBP11; ligand concentration 6, replicate 3",27264
same,"Fluorescence intensity, fluorescence competitive binding assay, OBP11","SfurOBP11; ligand concentration 8, replicate 1",26196
same,"Fluorescence intensity, fluorescence competitive binding assay, OBP11","SfurOBP11; ligand concentration 8, replicate 2",25787
same,"Fluorescence intensity, fluorescence competitive binding assay, OBP11","SfurOBP11; ligand concentration 8, replicate 3",26691
same,"Fluorescence intensity, fluorescence competitive binding assay, OBP11","SfurOBP11; ligand concentration 10, replicate 1",22993
same,"Fluorescence intensity, fluorescence competitive binding assay, OBP11","SfurOBP11; ligand concentration 10, replicate 2",24045
same,"Fluorescence intensity, fluorescence competitive binding assay, OBP11","SfurOBP11; ligand concentration 10, replicate 3",23459
same,"Fluorescence intensity, fluorescence competitive binding assay, OBP11","SfurOBP11; ligand concentration 12, replicate 1",23301
same,"Fluorescence intensity, fluorescence competitive binding assay, OBP11","SfurOBP11; ligand concentration 12, replicate 2",22698
same,"Fluorescence intensity, fluorescence competitive binding assay, OBP11","SfurOBP11; ligand concentration 12, replicate 3",22770
same,"Fluorescence intensity, fluorescence competitive binding assay, OBP11","SfurOBP11; ligand concentration 14, replicate 1",21327
same,"Fluorescence intensity, fluorescence competitive binding assay, OBP11","SfurOBP11; ligand concentration 14, replicate 2",20283
same,"Fluorescence intensity, fluorescence competitive binding assay, OBP11","SfurOBP11; ligand concentration 14, replicate 3",20685
same,"Fluorescence intensity, fluorescence competitive binding assay, OBP11","SfurOBP11; ligand concentration 16, replicate 1",18242
same,"Fluorescence intensity, fluorescence competitive binding assay, OBP11","SfurOBP11; ligand concentration 16, replicate 2",16904
same,"Fluorescence intensity, fluorescence competitive binding assay, OBP11","SfurOBP11; ligand concentration 16, replicate 3",18315
same,"Fluorescence intensity, fluorescence competitive binding assay, OBP11","SfurOBP11; ligand concentration 18, replicate 1",21574
same,"Fluorescence intensity, fluorescence competitive binding assay, OBP11","SfurOBP11; ligand concentration 18, replicate 2",21057
same,"Fluorescence intensity, fluorescence competitive binding assay, OBP11","SfurOBP11; ligand concentration 18, replicate 3",21178
same,"Fluorescence intensity, fluorescence competitive binding assay, OBP11","SfurOBP11; ligand concentration 20, replicate 1",19958
same,"Fluorescence intensity, fluorescence competitive binding assay, OBP11","SfurOBP11; ligand concentration 20, replicate 2",19749
same,"Fluorescence intensity, fluorescence competitive binding assay, OBP11","SfurOBP11; ligand concentration 20, replicate 3",19854
same,IC50,"SfurOBP2; SfurOBP2, protein and 1-NPN both 2.0 µM, competitor 2-20 µM, read-out: IC50",> 20 µM
same,"Fluorescence competitive binding assay, OBP2 (raw fluorescence reading)","SfurOBP2; ligand concentration 2 (unit not given), replicate column 1 of 3",19948
same,"Fluorescence competitive binding assay, OBP2 (raw fluorescence reading)","SfurOBP2; ligand concentration 2 (unit not given), replicate column 2 of 3",17721
same,"Fluorescence competitive binding assay, OBP2 (raw fluorescence reading)","SfurOBP2; ligand concentration 2 (unit not given), replicate column 3 of 3",20397
same,"Fluorescence competitive binding assay, OBP2 (raw fluorescence reading)","SfurOBP2; ligand concentration 4 (unit not given), replicate column 1 of 3",18968
same,"Fluorescence competitive binding assay, OBP2 (raw fluorescence reading)","SfurOBP2; ligand concentration 4 (unit not given), replicate column 2 of 3",18911
same,"Fluorescence competitive binding assay, OBP2 (raw fluorescence reading)","SfurOBP2; ligand concentration 4 (unit not given), replicate column 3 of 3",20133
same,"Fluorescence competitive binding assay, OBP2 (raw fluorescence reading)","SfurOBP2; ligand concentration 6 (unit not given), replicate column 1 of 3",20477
same,"Fluorescence competitive binding assay, OBP2 (raw fluorescence reading)","SfurOBP2; ligand concentration 6 (unit not given), replicate column 2 of 3",18306
same,"Fluorescence competitive binding assay, OBP2 (raw fluorescence reading)","SfurOBP2; ligand concentration 6 (unit not given), replicate column 3 of 3",21619
same,"Fluorescence competitive binding assay, OBP2 (raw fluorescence reading)","SfurOBP2; ligand concentration 8 (unit not given), replicate column 1 of 3",17546
same,"Fluorescence competitive binding assay, OBP2 (raw fluorescence reading)","SfurOBP2; ligand concentration 8 (unit not given), replicate column 2 of 3",19283
same,"Fluorescence competitive binding assay, OBP2 (raw fluorescence reading)","SfurOBP2; ligand concentration 8 (unit not given), replicate column 3 of 3",19094
same,"Fluorescence competitive binding assay, OBP2 (raw fluorescence reading)","SfurOBP2; ligand concentration 10 (unit not given), replicate column 1 of 3",16315
same,"Fluorescence competitive binding assay, OBP2 (raw fluorescence reading)","SfurOBP2; ligand concentration 10 (unit not given), replicate column 2 of 3",17446
same,"Fluorescence competitive binding assay, OBP2 (raw fluorescence reading)","SfurOBP2; ligand concentration 10 (unit not given), replicate column 3 of 3",18120
same,"Fluorescence competitive binding assay, OBP2 (raw fluorescence reading)","SfurOBP2; ligand concentration 12 (unit not given), replicate column 1 of 3",15600
same,"Fluorescence competitive binding assay, OBP2 (raw fluorescence reading)","SfurOBP2; ligand concentration 12 (unit not given), replicate column 2 of 3",16015
same,"Fluorescence competitive binding assay, OBP2 (raw fluorescence reading)","SfurOBP2; ligand concentration 12 (unit not given), replicate column 3 of 3",15598
same,"Fluorescence competitive binding assay, OBP2 (raw fluorescence reading)","SfurOBP2; ligand concentration 14 (unit not given), replicate column 1 of 3",15415
same,"Fluorescence competitive binding assay, OBP2 (raw fluorescence reading)","SfurOBP2; ligand concentration 14 (unit not given), replicate column 2 of 3",15014
same,"Fluorescence competitive binding assay, OBP2 (raw fluorescence reading)","SfurOBP2; ligand concentration 14 (unit not given), replicate column 3 of 3",15552
same,"Fluorescence competitive binding assay, OBP2 (raw fluorescence reading)","SfurOBP2; ligand concentration 16 (unit not given), replicate column 1 of 3",16559
same,"Fluorescence competitive binding assay, OBP2 (raw fluorescence reading)","SfurOBP2; ligand concentration 16 (unit not given), replicate column 2 of 3",13446
same,"Fluorescence competitive binding assay, OBP2 (raw fluorescence reading)","SfurOBP2; ligand concentration 16 (unit not given), replicate column 3 of 3",13014
same,"Fluorescence competitive binding assay, OBP2 (raw fluorescence reading)","SfurOBP2; ligand concentration 18 (unit not given), replicate column 1 of 3",16224
same,"Fluorescence competitive binding assay, OBP2 (raw fluorescence reading)","SfurOBP2; ligand concentration 18 (unit not given), replicate column 2 of 3",16658
same,"Fluorescence competitive binding assay, OBP2 (raw fluorescence reading)","SfurOBP2; ligand concentration 18 (unit not given), replicate column 3 of 3",15875
same,"Fluorescence competitive binding assay, OBP2 (raw fluorescence reading)","SfurOBP2; ligand concentration 20 (unit not given), replicate column 1 of 3",15466
same,"Fluorescence competitive binding assay, OBP2 (raw fluorescence reading)","SfurOBP2; ligand concentration 20 (unit not given), replicate column 2 of 3",14819
same,"Fluorescence competitive binding assay, OBP2 (raw fluorescence reading)","SfurOBP2; ligand concentration 20 (unit not given), replicate column 3 of 3",14364
same,"Fluorescence competitive binding assay, fluorescence intensity",SfurOBP3; ligand concentration 2,54416 and 49651 and 50603
same,"Fluorescence competitive binding assay, fluorescence intensity",SfurOBP3; ligand concentration 4,47681 and 49063 and 52745
same,"Fluorescence competitive binding assay, fluorescence intensity",SfurOBP3; ligand concentration 6,47400 and 49699 and 51997
same,"Fluorescence competitive binding assay, fluorescence intensity",SfurOBP3; ligand concentration 8,47134 and 47465 and 47300
same,"Fluorescence competitive binding assay, fluorescence intensity",SfurOBP3; ligand concentration 10,47300 and 47488 and 47127
same,"Fluorescence competitive binding assay, fluorescence intensity",SfurOBP3; ligand concentration 12,41818 and 40552 and 41184
same,"Fluorescence competitive binding assay, fluorescence intensity",SfurOBP3; ligand concentration 14,39535 and 41064 and 41296
same,"Fluorescence competitive binding assay, fluorescence intensity",SfurOBP3; ligand concentration 16,37737 and 36118 and 39070
same,"Fluorescence competitive binding assay, fluorescence intensity",SfurOBP3; ligand concentration 18,41678 and 41915 and 41872
same,"Fluorescence competitive binding assay, fluorescence intensity",SfurOBP3; ligand concentration 20,43199 and 40517 and 41843
same,IC50,"SfurOBP3; SfurOBP3, protein and 1-NPN both 2.0 µM, competitor 2-20 µM, read-out: IC50",> 20 µM
same,number of insects choosing hexane arm,S. furcifera adults,9
same,number of insects choosing volatilies arm,S. furcifera adults,12
same,number of insects failed (no choice),S. furcifera adults,19
